The values below come from publication PMC5636194 (Journal of nanomedicine & nanotechnology, 2017).

Structures are written as SMILES.

Data set [1] deals with T98G cells. Briefly: Cellular bioenergetics analysis (Seahorse XF24 oxygen consumption). It is filed as cell-based. On the procedure:
(§1) Assay was performed according to manufacturer’s directions and as previously described, where U87 and T98G cells were plated at 30,000 cells/well in an XF24 plate and allowed to attach overnight. Media was replaced an hour before onset of the assay with XF24 media, and then, rotenone/antimycin A mix, FCCP, and oligomycin were diluted in XF24 media and loaded into the provided cartridge to obtain final concentrations of 100 nM, 300 nM, and 1 µg/mL, respectively. […] Addition of the compounds into the medium took place at designated time points, and oxygen consumption was examined using a Seahorse Bioscience XF24 Extracellular Flux Analyzer.

Data set [2] has as its system U87 cells. The description is as above. It is filed as cell-based. On the procedure:
as §1

The subject of data set [3] is U87 cells. Briefly: ATP quantification (luciferase luminescence). Particulars: 10 µM, 24 hours. The class given is cell-based. On the procedure: U87 and T98G cells were seeded into 6-well plates at 200,000 cells/well in 1 mL DMEM high glucose with pyruvate (10% FBS and 1% Pen/Strep) and allowed to grow overnight. […] Following a modified protocol outlined in an ATP kit obtained from Life Technologies, cells were washed twice with PBS, then lysed with 150 uL of ATP assay buffer (500 mM Tricine buffer, pH 7.8, 100 mM MgSO4, 2 mM EDTA, and 2 mM sodium azide) containing 1% Triton X-100, dislodged by scraping with a pipette tip, and transferred to 1.5 mL Eppendorf tubes on ice for 5 minutes. 10 uL of cell lysate was then added in triplicate to a white 96-well plate, also containing ATP standards. Before reading the plate, 100 uL of ATP assay buffer containing 90 µg/mL D-luciferin, 20 µM DTT, and 25 µg/mL Luciferase) was added to each well. Luminescence was calculated using a Tecan Infinite F200 plate reader. Protein concentration was also determined using the Pierce 660 nm Protein Assay (660 nm absorbance), with ATP production standardized to protein values.

Data set [4] deals with T98G cells. Nature of the data set: Glucose quantification in medium. Particulars: 10 µM, 48 and 72 hours. It is filed as cell-based. As for the experimental part:
Glucose was measured per instructions from a kit manufactured by Sigma-Aldrich. Briefly, 200,000 U87 and T98G cells were seeded into a 6-well plate and incubated overnight. […] After designated times, medium was removed, diluted 1:100 in glucose assay buffer (glucose oxidase, horseradish peroxidase, and O-dianisidine), then added to a 96-well plate at a 1:3 dilution in glucose assay buffer. The plate was then incubated at 37°C and 5% CO2 for 30 minutes, and the reactions halted by the addition of 66 uL of 12 N sulfuric acid. Absorbance values were evaluated at 540 nm on a Biotek Synergy 2 plate reader.

Data set [5] concerns T98G cells. Briefly: Cell viability (calcein AM). Particulars: 10 µM. The class given is cell-based. On the procedure: (§2) U87 and T98G cells were seeded at 750 cells/well in 100 µL DMEM high glucose with pyruvate (10% FBS and 1% Pen/Strep) in a black, 96-well flat-bottomed plate, and allowed to attached overnight. […] The next morning, the plates were washed with 200 µL/well 1X PBS, which was removed and replaced with 95 µL calcein AM reagent at 1:1000 dilution in 1X PBS.

In data set [6] the test system is U87 cells. Nature of the data set: Cell viability (calcein AM). It is filed as cell-based. As for the experimental part:
as §2

In data set [7] the test system is T98G cells. Briefly: Liquid colony formation assay (4 weeks). It is filed as cell-based. Particulars: 10 µM. On the procedure:
(§3) Cells were seeded into 6-well culture plates (Falcon) at a concentration of 50 cells/well in 1 mL DMEM high glucose with pyruvate (Gibco), 10% FBS, and 1% Pen/Strep. Treatments were added to each well to obtain a pre-determined final concentration in 2 mL/well total volume. Plates were incubated for 4 weeks undisturbed, and only carefully received a media change at week 3 with or without drug treatments if colonies were not visible. Following completion of the 4-week incubation period, colonies were stained as previously described. […] Stained colonies were counted, with the number and size documented.

The test system of data set [8] is U87 cells. Briefly: Liquid colony formation assay (4 weeks). It is filed as cell-based. Particulars: 10 µM. On the procedure: as §3
A short description of data set [9]: In vivo bio-distribution (LC-MS/MS, noncompartmental PK). Set-up: species or system mice (CD-1). Particulars: female, mouse; CD-1 mice, single IV dose 8 mg/kg, plasma.
Protocol: Female mice (CD-1 background, 5–6 weeks old) were used for all bio-distribution studies. […] Plasma was processed from whole blood by centrifugation of EDTA-treated blood for 10 minutes at 9,600g, then stored at −80°C until analyzed. In addition, kidneys, spleen, lung, liver, and brain were removed, weighed; flash frozen, then homogenized in a 3-fold volume of PBS for further analysis and stored at −80°C. […] Next, 100 µL of each sample (plasma or tissue homogenate) was crashed with 200 µL methanol+0.1% formic acid+50 ng/mL (final concentration) n-benzyl benzamide internal standard, vortexed for 15 seconds, incubated at room temperature for 10 minutes, then centrifuged at 16,000g for 5 minutes at 4°C. 250 µL of supernatant was then transferred to an Eppendorf tube, centrifuged as previously described, then 195 µL of supernatant transferred to an HPLC vial with insert for analysis by HPLC-MS/MS (AB Sciex 3200 QTrap). […] The limit of detection (LOD) was set at the standard concentration providing an analyte signal three-fold above blank matrix. […] Per UTSW’s lab SOPs, samples falling below LOQ and above LOD are assigned a value of ½LOQ. Samples falling below LOQ and LOD are assigned a value of 0.

Take `CN(C)c1ccc2nc3ccc(=[N+](C)C)cc-3sc2c1` [MB, methylene blue]: the “Increase in OCR” value with T98G cells [1] (10 µM) is 1.5 fold. The “Oxygen consumption rate (OCR)” value in the data set with T98G cells [1] (1 and 10 µM) is “significantly increased”; in the data set on U87 cells [2] (10 µM) it was “significant increase”; in the data set on U87 cells [2] (lower treatment concentration (1 µM)), “not seen”. Also, the “ATP levels compared to control” value with U87 cells [3] is listed as “increased”. In the data set on T98G cells [4], the “Sample glucose compared to untreated cells” value is given as “significant increases”. In addition, the “Initial reduction in cell viability” value in the data set with T98G cells [5] (24 and 72 hours) was 25%. For the same compound, the “Additional reduction in cell viability” value in the data set with T98G cells [5] (through […]) is listed as ~ 50%. Also, in the data set on U87 cells [6] (10 µM, 24, 72 and […]), the “Cell viability over time course” value is “did not induce cell death until 72 and 144 hours”. Further, the Cell viability entry in the data set with U87 cells [6] (10 µM, 24-hour treatment) was “increase in cell viability”. Further, the “Average colony size compared to control” value in the data set on T98G cells [7] and in the data set on U87 cells [8] was “significantly reduced” in each case. The “Average number of colonies” value with T98G cells [7] is listed as “significantly reduced”; in the data set on U87 cells [8], “reduced”. In addition, the AUC in data set [9] was 2130 ng·h/mL.

The term AUC denotes the area under the concentration-time curve, a measure of exposure.
